21 compounds from ChEMBL document CHEMBL1134722, “Selective, orally active MMP inhibitors with an aryl backbone” (Bioorg Med Chem Lett, 2001) can be followed below.

The target in data set [1] is T1, Interstitial collagenase (Homo sapiens) (UniProt P03956).
T1 sequence (whole entry): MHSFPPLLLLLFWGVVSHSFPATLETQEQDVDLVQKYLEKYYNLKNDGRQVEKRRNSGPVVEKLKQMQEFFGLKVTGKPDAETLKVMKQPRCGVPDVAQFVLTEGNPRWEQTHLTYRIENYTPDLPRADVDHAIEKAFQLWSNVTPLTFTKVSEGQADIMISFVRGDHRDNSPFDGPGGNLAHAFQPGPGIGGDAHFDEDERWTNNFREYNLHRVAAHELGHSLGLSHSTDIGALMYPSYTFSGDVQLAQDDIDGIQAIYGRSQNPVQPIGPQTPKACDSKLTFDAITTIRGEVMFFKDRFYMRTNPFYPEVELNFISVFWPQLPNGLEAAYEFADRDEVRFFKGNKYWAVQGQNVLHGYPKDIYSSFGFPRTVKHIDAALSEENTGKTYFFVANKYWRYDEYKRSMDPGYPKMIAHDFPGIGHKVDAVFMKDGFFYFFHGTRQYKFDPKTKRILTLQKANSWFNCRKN
In words: Inhibitory activity against human Matrix metalloprotease-1.

Data set [2] can be described thus: Oral bioavailability in rat. Type of data set: ADME, organism-based. The following applies: in vivo, read-out: BA.
A short description of data set [3]: Half life period after intravenous administration at 20 mpk in rats. In kind it is ADME, organism-based. Particulars: rat, in vivo, 20 mg/kg.
Data set [4] in a line: Cmax after oral administration at 20 mpk in rats. More on the design: dose 20 mpk, route oral. Particulars: rat, in vivo, 20 mg/kg. Type of data set: ADME, organism-based.
The target in data set [5] is 72 kDa type IV collagenase (Homo sapiens) (UniProt P08253). In words: Inhibitory concentration against Matrix metalloprotease-2.

Bounds are passed on as bounds.

Broadly, the half-life is the time needed for the level to fall by half in the phase considered. Low readings indicate fast loss, high ones slow loss. One may read the Cmax as the highest concentration seen after dosing.

Sequence of 72 kDa type IV collagenase (Homo sapiens) (P08253 110-660 limits assumed): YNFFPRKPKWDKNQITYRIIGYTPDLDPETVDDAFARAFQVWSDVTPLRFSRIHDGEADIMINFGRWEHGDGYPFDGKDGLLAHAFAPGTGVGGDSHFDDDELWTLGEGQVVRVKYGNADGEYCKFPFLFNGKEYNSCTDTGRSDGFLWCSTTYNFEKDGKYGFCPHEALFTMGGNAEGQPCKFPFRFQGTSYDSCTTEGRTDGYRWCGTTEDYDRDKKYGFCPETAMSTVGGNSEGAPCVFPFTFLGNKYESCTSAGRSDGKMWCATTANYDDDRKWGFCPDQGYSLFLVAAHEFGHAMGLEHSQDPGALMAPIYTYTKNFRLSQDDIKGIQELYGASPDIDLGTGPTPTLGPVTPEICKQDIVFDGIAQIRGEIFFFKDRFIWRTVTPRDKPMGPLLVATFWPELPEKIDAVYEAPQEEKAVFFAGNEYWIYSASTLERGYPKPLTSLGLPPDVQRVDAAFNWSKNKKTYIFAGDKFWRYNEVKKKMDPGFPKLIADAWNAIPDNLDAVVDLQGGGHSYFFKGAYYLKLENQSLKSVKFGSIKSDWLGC

On to `COc1ccc(S(=O)(=O)N2CCC(Oc3ccc(C(F)(F)F)cc3)CC2)c(C(=O)NO)c1OC`, for which the values for the Activity in data set [1] and in data set [5] were above 10 µM and 2.4 nM, respectively. Further, the bioavailability in data set [2] worked out at 32%. In data set [3], the half-life is 1.9 h. This compound also displayed a Cmax in data set [4] of 22500 ng/mL.
As to `O=C(NO)c1ccccc1S(=O)(=O)N1CCC(Oc2ccc(OC(F)(F)F)cc2)CC1`, the results for the Activity in data set [1] and in data set [5] were above 10 µM and 2.2 nM, respectively. For the same compound, the bioavailability in data set [2] was 39%. The compound also registered a Cmax in data set [4] of 670 ng/mL.
Regarding `COc1ccc(S(=O)(=O)N2CCC(Oc3ccc(OC(F)(F)F)cc3)CC2)c(C(=O)NO)c1OC`, the Activity in data set [1] is above 10 µM; in data set [5], 0.8 nM. In addition, the bioavailability in data set [2] came to 31%. Besides, the half-life in data set [3] is 1.5 h. The same compound returned a Cmax in data set [4] of 5160 ng/mL.
On to `O=C(NO)c1c(F)cccc1S(=O)(=O)N1CCC(Oc2ccc(C(F)(F)F)cc2)CC1`, for which the figures for the Activity in data set [1] and in data set [5] were above 10 µM and 3.3 nM, respectively.
For the compound `CC1(C)SCCN(S(=O)(=O)c2ccc(Oc3ccncc3)cc2)[C@H]1C(=O)NO` [PRINOMASTAT], the bioavailability in data set [2] amounted to 28%. This compound showed a half-life in data set [3] of 1.6 h. Besides, the peak level in data set [4] (Cmax) was 2060 ng/mL.
`CNC(=O)[C@@H](NC(=O)C(CC(C)C)C(O)C(=O)NO)C(C)(C)C` (single isomer, unassigned): the bioavailability in data set [2] worked out at 9%. In data set [3], this compound had a half-life of 0.9 h. The same compound had a Cmax in data set [4] of 2400 ng/mL.
Regarding `COc1ccc(S(=O)(=O)N2CCC(OCc3ccc4c(c3)OCO4)CC2)c(C(=O)NO)c1OC`, the Activity is above 10 µM in data set [1] and 1 nM in data set [5]. This compound also yielded a Cmax in data set [4] of 9200 ng/mL.
Consider `COc1cccc(OC2CCN(S(=O)(=O)c3ccc(OC)c(OC)c3C(=O)NO)CC2)c1`, for which the Activity in data set [1] is above 10 µM; in data set [5], 12 nM.
For the compound `O=C(NO)c1c(S(=O)(=O)N2CCC(OCc3ccc4c(c3)OCO4)CC2)ccc2c1OCO2`, the Activity is above 10 µM in data set [1] and 1.1 nM in data set [5].
The corresponding values for `O=C(NO)c1c(OC2CCOCC2)cccc1S(=O)(=O)N1CCC(Oc2ccc(C(F)(F)F)cc2)CC1` are above 10 µM and 1.1 nM.
Turning to `COc1ccc(S(=O)(=O)N2CCC(Oc3ccccc3)CC2)c(C(=O)NO)c1OC`, the Activity in data set [1] is above 10 µM; in data set [5], 1.1 nM.
`O=C(NO)c1c(S(=O)(=O)N2CCC(Oc3ccc(C(F)(F)F)cc3)CC2)ccc2c1OCO2`: the Activity in data set [1] is above 10 µM; in data set [5] it was 3 nM. Also, the Cmax in data set [4] was found to be 3060 ng/mL.
The corresponding values for `O=C(NO)c1c(S(=O)(=O)N2CCC(Oc3ccc(C(F)(F)F)cc3)CC2)ccc2c1OCCO2` are above 10 µM, 1.4 nM and 3200 ng/mL.
As to `O=C(NO)c1c(Cl)cccc1S(=O)(=O)N1CCC(Oc2ccc(C(F)(F)F)cc2)CC1`, the Activity in data set [1] was above 10 µM; in data set [5], 1.9 nM. This compound registered a Cmax in data set [4] of 1310 ng/mL.
Consider `COc1ccccc1OC1CCN(S(=O)(=O)c2ccc(OC)c(OC)c2C(=O)NO)CC1`, for which the Activity in data set [1] is above 10 µM; in data set [5], 330 nM.
In the case of `COCCOc1cccc(S(=O)(=O)N2CCC(Oc3ccc(C(F)(F)F)cc3)CC2)c1C(=O)NO`, the Activity is above 10 µM in data set [1] and 1 nM in data set [5]. Also, in data set [4], the peak level (Cmax) was 2670 ng/mL.
Consider `COc1ccc(OC2CCN(S(=O)(=O)c3ccc(OC)c(OC)c3C(=O)NO)CC2)cc1`, for which the Activity is above 10 µM in data set [1] and 1.8 nM in data set [5].
Regarding `COc1ccc(OC)c(S(=O)(=O)N2CCC(Oc3ccc(C(F)(F)F)cc3)CC2)c1C(=O)NO`, the Activity in data set [1] was above 10 µM; in data set [5], 21 nM.
For `COc1ccc(S(=O)(=O)N2CCC(Oc3ccc(Cl)cc3)CC2)c(C(=O)NO)c1OC`, the Activity is above 10 µM in data set [1] and 0.3 nM in data set [5].
For `O=C(NO)c1ccccc1S(=O)(=O)N1CCC(Oc2ccc(C(F)(F)F)cc2)CC1`, the Activity in data set [1] was above 10 µM. Moreover, in data set [2], the bioavailability amounted to 23%. For the same compound, the half-life in data set [3] is 0.8 h. For the same compound, the concentration in data set [4] peaked (Cmax) at 1230 ng/mL.
As for `O=C(NO)C1(CS(=O)(=O)c2ccc(Oc3ccc(Cl)cc3)cc2)CCOCC1` [CTS-1027], the Activity in data set [1] amounted to 0.8 µM; in data set [5] it was 0.4 nM. Also, in data set [2], the bioavailability worked out at 22%. The half-life in data set [3] is 1.5 h. The compound further yielded a Cmax in data set [4] of 1370 ng/mL.
